Results taken from PMC7343746, “(2S, 4R)-4-[^18F]Fluoroglutamine for In vivo PET Imaging of Glioma Xenografts in Mice: an Evaluation of Multiple Pharmacokinetic Models” (Molecular Imaging and Biology, 2020).

Legend:
rat BT4C glioma cells [1] = assay: 2-Compartment model, subcutaneous model; type: in vivo, Foxn1^nu/nu mouse
Protocol: (§1) Image analysis was performed using CARIMAS software published and freely distributed by the Turku PET Center (http://turkupetcentre.fi/carimas/). CT scans were used as rough anatomical reference while tumor regions of interest (ROI) were hand-drawn based upon observed spikes of radioactivity in the PET images at locations correlating with recorded tumor grafts. Control muscle ROIs were drawn on the side opposite to the tumor in the leg flank muscle (based on CT) while the blood ROI was drawn based upon heart anatomical location and observed PET image radioactivity spike during the initial 20 s of imaging in the left ventricle. Standardized uptake values (SUV) were calculated with respect to ROI volume, mean and max tumor radioactivity, total injected radioactivity dose (corrected for tail, cannula, and syringe residual radioactivity), and animal weight, and were additionally presented as tumor-to-background ratio (TBR, tumor-to-healthy brain region for intracranial gliomas and tumor-to-muscle for subcutaneous gliomas) as defined by recent glioma research literature standards. Mean and maximum TBR values were reported as ROI radioactivity per volume divided by mean background radioactivity per volume. The blood radioactivity SUV and gender-specific metabolite-corrected blood radioactivity SUV were then applied to multiple pharmacokinetic models to characterize the flux of the tracer (further described in the “Modeling” section).
(§2) Using the heart’s left ventricle ROI from the PET data as an uncorrected radioactivity level input and the bioavailable parent-tracer fraction (results: Eqs. 3 and 4 applied to the uncorrected input) as the corrected input, multiple models were investigated to characterize the tissue uptake dynamics. Two-compartment modeling and Logan, Patlak, and Yokoi plots were used to separately model the pharmacokinetics for the gliomas (both subcutaneous and orthotopic loci) and their respective control tissues (healthy muscle and healthy brain, respectively). Where indicated, means plus/minus standard deviations are reported. Difference in parameters for uncorrected versus correct and target tissue versus their respective control regions were tested with students’ paired t tests with P values lower than 0.05 being considered significant.

rat BT4C glioma cells [2] = assay: Patlak plot (irreversible uptake model), subcutaneous model; type: in vivo, Foxn1^nu/nu mouse; settings: for Patlak Ic (AB) y intercept: AB input; for Patlak Ic (PC) y intercept: PC input
Protocol: as §1, §2

[3] = tested on: patient-derived BT3 glioma cells; assay: Logan plot (reversible uptake model), orthotopic model; type: in vivo, BALB/cOlaHsd-Foxn1^nu mouse; settings: for Logan DV (AB) distribution volume / Logan Ic (AB) y intercept: AB input; for Logan DV (PC) distribution volume / Logan IC (PC) y intercept: PC input
Protocol: as §1, §2

[4] = Bone (femoral condyle) average (n = 6), arterial blood input
[5] = Bone (femoral condyle) average (n=6), plasma-corrected input
[6] = Flank muscle average (n = 6), arterial blood input
[7] = Flank muscle average (n=6), plasma-corrected input
[8] = Flank tumor average (n = 6), arterial blood input
[9] = Flank tumor average (n=6), plasma-corrected input
[10] = Neck tumor average (n = 6), arterial blood input
[11] = Neck tumor average (n=6), plasma-corrected input
[12] = Bone (femoral condyle) average (n = 6)

## NC(=O)[C@H]([18F])C[C@H](N)C(=O)O [[^18F]FGln, (2S, 4R)-4-[^18F]fluoroglutamine]
Rat BT4C glioma cells [1]; [4]
  2-Compartment K1: 0.309 ± 0.179 mL min-1 mL-1
  2-Compartment K1/k2: 0.745 ± 0.194 mL mL-1
  2-Compartment Vb: 5.45 ± 2.53%
  2-Compartment k3: 0.075 ± 0.034 min⁻¹
  2-Compartment k3*K1/k2: 0.052 ± 0.017
  2-Compartment k3/(k2+k3): 0.171 ± 0.083
Rat BT4C glioma cells [1]; [5]
  2-Compartment K1: 0.402 ± 0.206 mL min-1 mL-1
  2-Compartment K1/k2: 0.649 ± 0.191 mL mL-1
  2-Compartment Vb: 3.21 ± 3.57%
  2-Compartment k3: 0.148 ± 0.063 min⁻¹
  2-Compartment k3*K1/k2: 0.086 ± 0.024
  2-Compartment k3/(k2+k3): 0.198 ± 0.079
Rat BT4C glioma cells [1]; [6]
  2-Compartment K1: 0.079 ± 0.027 mL min-1 mL-1
  2-Compartment K1/k2: 0.564 ± 0.130 mL mL-1
  2-Compartment Vb: 2.33 ± 1.07%
  2-Compartment k3: 0.009 ± 0.005 min⁻¹
  2-Compartment k3*K1/k2: 0.005 ± 0.002
  2-Compartment k3/(k2+k3): 0.061 ± 0.038
Rat BT4C glioma cells [1]; [7]
  2-Compartment K1: 0.081 ± 0.027 mL min-1 mL-1
  2-Compartment K1/k2: 0.797 ± 0.163 mL mL-1
  2-Compartment Vb: 2.8 ± 1.12%
  2-Compartment k3: 0.015 ± 0.005 min⁻¹
  2-Compartment k3*K1/k2: 0.012 ± 0.003
  2-Compartment k3/(k2+k3): 0.136 ± 0.055
Rat BT4C glioma cells [1]; [8]
  2-Compartment K1: 0.147 ± 0.028 mL min-1 mL-1
  2-Compartment K1/k2: 0.973 ± 0.187 mL mL-1
  2-Compartment Vb: 5.59 ± 2.78%
  2-Compartment k3: 0.005 ± 0.004 min⁻¹
  2-Compartment k3*K1/k2: 0.004 ± 0.003
  2-Compartment k3/(k2+k3): 0.028 ± 0.021
Rat BT4C glioma cells [1]; [9]
  2-Compartment K1: 0.148 ± 0.027 mL min-1 mL-1
  2-Compartment K1/k2: 1.369 ± 0.273 mL mL-1
  2-Compartment Vb: 6.64 ± 3.1%
  2-Compartment k3: 0.010 ± 0.004 min⁻¹
  2-Compartment k3*K1/k2: 0.013 ± 0.003
  2-Compartment k3/(k2+k3): 0.086 ± 0.028
Rat BT4C glioma cells [1]; [10]
  2-Compartment K1: 0.202 ± 0.079 mL min-1 mL-1
  2-Compartment K1/k2: 1.129 ± 0.141 mL mL-1
  2-Compartment Vb: 8.28 ± 5.95%
  2-Compartment k3: 0.002 ± 0.002 min⁻¹
  2-Compartment k3*K1/k2: 0.002 ± 0.002
  2-Compartment k3/(k2+k3): 0.015 ± 0.013
Rat BT4C glioma cells [1]; [11]
  2-Compartment K1: 0.202 ± 0.072 mL min-1 mL-1
  2-Compartment K1/k2: 1.567 ± 0.209 mL mL-1
  2-Compartment Vb: 9.79 ± 6.85%
  2-Compartment k3: 0.008 ± 0.002 min⁻¹
  2-Compartment k3*K1/k2: 0.013 ± 0.002
  2-Compartment k3/(k2+k3): 0.065 ± 0.026
Rat BT4C glioma cells [2]; [12]
  Patlak Ic (AB) y intercept: 0.5752 ± 0.1597
  Patlak Ic (PC) y intercept: 0.3705 ± 0.2561
Rat BT4C glioma cells [2]; Flank muscle average (n = 6)
  Patlak Ic (AB) y intercept: 0.5790 ± 0.1835
  Patlak Ic (PC) y intercept: 0.8154 ± 0.2742
Rat BT4C glioma cells [2]; Flank tumor average (n = 6)
  Patlak Ic (AB) y intercept: 1.0521 ± 0.2524
  Patlak Ic (PC) y intercept: 1.5318 ± 0.3888
Rat BT4C glioma cells [2]; Neck tumor average (n = 6)
  Patlak Ic (AB) y intercept: 1.2083 ± 0.1715
  Patlak Ic (PC) y intercept: 1.7708 ± 0.2668
Rat BT4C glioma cells [2]; Patlak versus reversible models
  Irreversible uptake rate relative to reversible uptake rates: roughly 15 times lower
[3]; Subject A brain (control)
  Logan DV (AB) distribution volume: 1.61
  Logan Ic (AB) y intercept: -14.15
  Logan DV (PC) distribution volume: 2.97
  Logan IC (PC) y intercept: -25.16
[3]; Subject A glioma max.
  Logan DV (AB) distribution volume: 0.34
  Logan Ic (AB) y intercept: -18.72
  Logan DV (PC) distribution volume: 0.67
  Logan IC (PC) y intercept: -34.83
[3]; Subject A o.t. glioma
  Logan DV (AB) distribution volume: 1.51
  Logan Ic (AB) y intercept: -19.69
  Logan DV (PC) distribution volume: 2.97
  Logan IC (PC) y intercept: -36.03
[3]; Subject B brain (control)
  Logan Ic (AB) y intercept: -61.91
  Logan DV (PC) distribution volume: 2.57
  Logan IC (PC) y intercept: -50.78
[3]; Subject B glioma max.
  Logan DV (AB) distribution volume: 1.27
  Logan Ic (AB) y intercept: -26.85
  Logan DV (PC) distribution volume: 0.60
  Logan IC (PC) y intercept: -36.40
[3]; Subject B o.t. glioma
  Logan DV (AB) distribution volume: 0.32
  Logan Ic (AB) y intercept: -20.23
  Logan DV (PC) distribution volume: 1.95
  Logan IC (PC) y intercept: -41.27
